What was measured:
phosphorylated ZAP70 = experiment: Phosphorylated ZAP70 in circulating CD8+ T cells of patients, Phase 1 trial (flow cytometry); assay type: in vivo, human
Protocol: [The procedure below names another target; the source lists this target under the same test.] Pharmacodynamic analysis of the proximal biomarker, phosphorylated HS1 is assessed in circulating CD8^+ T cells from patients that are being administered doses ranging from 5 to 50 mg of Compound 23 once daily and is being used to assess target engagement of Compound 23 as part of the dose/exposure-response profile. Whole blood is collected longitudinally and added into two types of TruCulture (Myriad) tubes. One tube contains media, and the second tube contains anti-CD3 and anti-CD28, which are subsequently crosslinked to induce cellular stimulation for pharmacodynamic analysis. Phosphorylated HS1 is assessed by flow cytometry pre and post dose on Cycle 1 Day 1 (C1D1) and Cycle 2 Day 1 (C2D1) to characterize single/multiple dose PD profiles.
% Maximal phosphorylated signal and % AUC are two commonly used parameters to assess the pharmacodynamic effects of drugs.
% Maximal phosphorylated signal refers to the maximum amount of a specific protein that becomes phosphorylated (i.e., modified by the addition of a phosphate group) in response to a drug or other stimulus. This parameter is often used to measure the activation of signaling pathways that are important for various cellular processes, including cell growth and differentiation, immune response, and metabolism.
% AUC, on the other hand, refers to the area under the curve (AUC) over time, expressed as a percentage of the maximum possible AUC. In summary, both % maximal phosphorylated signal and % AUC are useful parameters to assess the pharmacodynamic effects of drugs. % maximal phosphorylated signal is a measure of the activation of signaling pathways, while % AUC reflects the duration of the effect on PD signals. Both parameters can be used to evaluate the potency and duration of a drug's pharmacodynamic effects.

phosphorylated HS1 = experiment: HS1 phosphorylation in stimulated CD8+ T cells of mice after a single oral dose (flow cytometry); assay type: in vivo
Protocol: To assess the in vivo effects of Compound 23 on candidate clinical proximal biomarkers of CBL-B inhibition and compare them to anti-tumor efficacy, two experiments were performed in mice. In the first experiment, whole blood was obtained from groups of mice (n=4 per group) administered a single oral dose of either vehicle (0.5% MC/0.2% polysorbate 80 in deionized water) or increasing doses of Compound 23 at 0.3, 1, 3, 10, 30, or 90 mg/kg. The response to Compound 23 on HS1 activation was measured in anti-CD3 and anti-CD28 stimulated CD8^+ T cells using flow cytometry. Compound 23 induced a dose-dependent increase in the proportion of phosphorylated HS1^+CD8^+ in the presence of anti-CD3 and anti-CD28 co-stimulation. The greatest induction of phosphorylated HS1 was observed upon ex vivo stimulation following administration of Compound 23 doses of ≥10 mg/kg. […] Statistical significance was calculated using 2-way ANOVA with Dunnett's multiple comparisons test.

phosphorylated PLCγ2 = experiment: Phosphorylated PLCγ2 in cynomolgus macaque CD8+ T cells from whole blood in vitro (flow cytometry); assay type: cell-based; conditions: Macaca fascicularis, T-cell, whole blood from six cynomolgus macaques, 2 hrs 37° C., 2 μg/mL anti-CD3 & anti-CD28 + crosslinker 60 minutes, read-out: Average mean EC50±standard deviation, phosphorylated PLCγ2
Protocol: To assess these candidate clinical proximal biomarkers of Cbl-b inhibition on T cells, pharmacodynamic analysis was performed. Whole blood was obtained from cynomolgus macaque donors, then incubated with increasing concentrations of Compound 23. The response to Cbl-b inhibition on phosphorylated HS1, ZAP70 and PLCγ2 was measured in CD8^+ T cells using flow cytometry. This technique is highly quantitative and can measure multiple phosphorylation markers in different cell populations within the same sample.
DMSO (Dimethyl sulfoxide) was used to reconstitute Compound 23. Final concentration of DMSO was 0.05% in media for in vitro assays. […]
Stained cells were run on an Attune NxT Acoustic Focusing Flow Cytometer (Thermo Fisher, cat. No. A29004), and data was analyzed using FlowJo (v10.6.1) and GraphPad Prism (v8.00) software. Single lymphocytes were gated for CD8^+ cells (CD45^+/CD8^+) cells, and population frequencies were calculated for each population. The data is quantified by the percent positive. […] As protein becomes phosphorylated the fluorescence increases resulting in a larger fraction of the cells entering that gate. Each population was evaluated for % positive pY759-PLCγ2, pY397-HS1 levels, pY319/Syk (Y352)-ZAP70 levels.

[1] = 5 mg once daily, n=1, cycle 1, day 1
[2] = 15 mg once daily, n=12, cycle 1, day 1
[3] = 25 mg once daily, n=7, cycle 1, day 1
[4] = 50 mg once daily, n=2, cycle 1, day 1

C[C@H]1CCCN(Cc2cc3c(c(C(F)(F)F)c2)CN(c2cccc([C@]4(c5nncn5C)C[C@@H](C)C4)c2)C3=O)C1 [Compound 23]
% of phosphorylated ZAP70 expressing CD8+ T cells (maximal) (phosphorylated ZAP70; [1]): 47%
phosphorylated ZAP70 AUC (phosphorylated ZAP70; [1]): 734
% of phosphorylated ZAP70 expressing CD8+ T cells (maximal) (phosphorylated ZAP70; [2]): 83%
phosphorylated ZAP70 AUC (phosphorylated ZAP70; [2]): 1641
% of phosphorylated ZAP70 expressing CD8+ T cells (maximal) (phosphorylated ZAP70; [3]): 82%
phosphorylated ZAP70 AUC (phosphorylated ZAP70; [3]): 1506
% of phosphorylated ZAP70 expressing CD8+ T cells (maximal) (phosphorylated ZAP70; [4]): 85%
phosphorylated ZAP70 AUC (phosphorylated ZAP70; [4]): 1870
trend of maximal % pZAP70 with PK (phosphorylated ZAP70; not statistically significant, p=0.06): Positive trend
proximal biomarker pHS1 that correlates with the efficacious range (phosphorylated HS1; pHS1+CD8+ T cells, mouse syngeneic tumor models, therapeutic range): approximately 50%
minimum biological effect level observed in mice (EC50), phosphorylated HS1+ CD8+ (phosphorylated HS1; single oral dose 0.3-90 mg/kg, anti-CD3 and anti-CD28 stimulated CD8+ T cells): 12 mg/kg
doses giving the greatest induction of phosphorylated HS1 (phosphorylated HS1; single oral dose, ex vivo stimulation): ≥ 10 mg/kg
EC50 (phosphorylated PLCγ2): 0.121 ± 0.0374 µM
